Laboratory results: patent US20210369720A1, “SYNERGISTIC COMPOSITION HAVING NEUROPROTECTIVE PROPERTIES AND METHODS OF USE THEREOF” (Rutgers, The State University of New Jersey, priority 2018, published 2021)

Columns and labels:
Type in all cases: in vivo
[1] = tested on: α-Syn PFF inoculated WT mice; test: Wire Hang test, α-Syn PFF inoculated WT mice; settings: EHT 12 mg/kg/day in diet and/or caffeine 50 mg/kg/day in drinking water from weaning, 6 months post-inoculation
From the text: (§1) Thy1-α-synuclein transgenic mice (Syn^Tg) on BDF1 background overexpressing human wild-type α-synuclein under the control of the Thy1 promoter were maintained by mating heterozygous transgenic females with WT BDF1 males (Rockenstein E, et al. (2002) Differential neuropathological alterations in transgenic mice expressing alpha-synuclein from the platelet-derived growth factor and Thy-1 promoters. J Neurosci Res 68(5):568-578). BDF1 mice (mixed C57BL/6-DBA/2) were generated every three months by mating female C57BL/6 (The Jackson Laboratory) and male DBA/2 mice (Charles River). Experiments were performed with male transgenic mice and their WT littermates. […] Wild-type littermates received regular water and control chow. […] At two months of age, mice were inoculated with α-Syn PFF unilaterally in the striatum. These treatments continued throughout the experiment until animals were sacrificed. Mice were weighed and their food and water intake was quantified weekly. Animals were housed 2-5/cage in an AAALAC approved facility in a temperature- and humidity-controlled environment under a 12-hour light/dark cycle and were maintained on a diet of lab chow and water ad libitum. […]

dopamine = test: Striatal dopamine content by HPLC-MS, α-Syn PFF inoculated WT mice; settings: each compound alone, EHT 12 mg/kg/day or caffeine 50 mg/kg/day, vs untreated α-Syn PFF inoculated mice
From the text: as §1

Iba1 = test: Immunohistochemical staining of Iba-1 in the striatum, Syn^Tg mice; settings: EHT 12 mg/kg/day and/or caffeine 50 mg/kg/day until six months of age
From the text: Neuroinflammation is one of the neuropathological features of PD and models of α-synucleinopathy including Syn^Tg mice (Lee K W, et al. (2011) Enhanced phosphatase activity attenuates alpha-synucleinopathy in a mouse model. J Neurosci 31(19):6963-6971).
Thy1-α-synuclein transgenic mice (Syn^Tg) on BDF1 background overexpressing human wild-type α-synuclein under the control of the Thy1 promoter were maintained by mating heterozygous transgenic females with WT BDF1 males (Rockenstein E, et al. (2002) Differential neuropathological alterations in transgenic mice expressing alpha-synuclein from the platelet-derived growth factor and Thy-1 promoters. J Neurosci Res 68(5):568-578). BDF1 mice (mixed C57BL/6-DBA/2) were generated every three months by mating female C57BL/6 (The Jackson Laboratory) and male DBA/2 mice (Charles River). Experiments were performed with male transgenic mice and their WT littermates. […] Wild-type littermates received regular water and control chow. […] Mice were weighed and their food and water intake was quantified weekly. […]
Vectastain elite ABC kit (Vector Laboratories, Burlingame, Calif.) and 3,3′-diaminobenzidine (Sigma-Aldrich) were used for amplifying and color development. […] For other stains, the whole microscopic field was analyzed. For p-α-Syn stains in the cortex, four matching regions in each of two sections per animal were counted.

[2] = tested on: phosphorylated α-synuclein (p-α-Syn); test: Western blot of p-α-Syn in cortical tissue lysates, Syn^Tg mice; settings: EHT 12 mg/kg/day and/or caffeine 50 mg/kg/day until six months of age, vs untreated Syn^Tg mice
From the text: as §1, with “weekly.” for “weekly. Animals were housed 2-5/cage in an AAALAC approved facility in a temperature- and humidity-controlled environment under a 12-hour light/dark cycle and were maintained on a diet of lab chow and water ad libitum.”
(§2) Human neuroblastoma SH-SY5Y cells were cultured in DMEM-F12 with 10% FBS. […] Protein concentration was determined by bicinchonic acid (BCA) method (Pierce), equal amount of protein was separated on 5-20% SDS-PAGE gel (Genescript) and transferred to nitrocellulose or PVDF membrane (Biorad). […]

[3] = tested on: TH positive dopaminergic neurons of the substantia nigra; test: Nigral TH positive neuron count, α-Syn PFF inoculated WT mice; settings: each compound individually, PFF alone reduced neurons by 51% vs PBS
From the text: as §1

PP2A = test: Western blot of PP2A methylation, ipsilateral striatal tissue lysates of α-Syn PFF inoculated mice; settings: EHT 12 mg/kg/day and/or caffeine 50 mg/kg/day, vs untreated α-Syn PFF inoculated mice
From the text: Thy1-α-synuclein transgenic mice (Syn^Tg) on BDF1 background overexpressing human wild-type α-synuclein under the control of the Thy1 promoter were maintained by mating heterozygous transgenic females with WT BDF1 males (Rockenstein E, et al. (2002) Differential neuropathological alterations in transgenic mice expressing alpha-synuclein from the platelet-derived growth factor and Thy-1 promoters. J Neurosci Res 68(5):568-578). BDF1 mice (mixed C57BL/6-DBA/2) were generated every three months by mating female C57BL/6 (The Jackson Laboratory) and male DBA/2 mice (Charles River). Experiments were performed with male transgenic mice and their WT littermates. […] Wild-type littermates received regular water and control chow. […] At two months of age, mice were inoculated with α-Syn PFF unilaterally in the striatum. These treatments continued throughout the experiment until animals were sacrificed. Mice were weighed and their food and water intake was quantified weekly. Animals were housed 2-5/cage in an AAALAC approved facility in a temperature- and humidity-controlled environment under a 12-hour light/dark cycle and were maintained on a diet of lab chow and water ad libitum. All animal procedures were approved by the Rutgers-Robert Wood Johnson Medical School Institutional Animal Care and Use Committee and were performed according to the National Institutes of Health Guide for the Care and Use of Laboratory Animals.
α-Syn PFF solution was sonicated at 60% amplitude 30 times (0.5 sec on, 0.5 sec off). During the stereotactic surgery, two month old WT C57BL/6 mice were anesthetized by Ketamine/xylazine (90/4.5 mg/kg, i.p., Ketaset from Zoetis, and Anased from Akorn) and positioned in a digital stereotaxic apparatus (Stoelting, Wood Dale, Ill.). […]
as §2

## CCCCCCCCCCCCCCCCCCCC(=O)NCCc1c[nH]c2ccc(O)cc12 [EHT, eicosanoyl-5-hydroxytryptamide]
[1]
  performance on the wire hang test: improved performance
dopamine
  dopamine (DA) content in lysates of the ipsilateral striatum, benefit in words: did not have a significant benefit
Iba1
  microglial activation (Iba1) in the striatum: partially but insignificantly attenuated
[2]
  p-α-Syn levels by Western blot, cortical tissue lysates: no significant effect
[3]
  prevention of the reduction of TH positive dopaminergic neurons of the substantia nigra: did not prevent this reduction
PP2A
  methyl- to demethyl-PP2A ratio: insignificant increase
  methyl-PP2A levels: insignificant increase
